From ChEMBL document CHEMBL4428035, “Urea derivates of ursolic, oleanolic and maslinic acid induce apoptosis and are selective cytotoxic for several human tumor cell lines” (Eur J Med Chem, 2016) come the findings set out here.

As usually defined, the EC50 is the concentration at which the effect is half-maximal.

For assay [1], the system named is 518A2. As to the kind of experiment: Cytotoxicity against human 518A2 cells assessed as reduction in cell proliferation after 96 hrs by sulforhodamine B assay. Conditions: 518A2, 96 h. It is filed as functional, cell-based. On the technique in general: The SRB assay estimates cell density from bound dye.
In assay [2] the test system is HT-29. Briefly: Cytotoxicity against human HT-29 cells assessed as reduction in cell proliferation after 96 hrs by sulforhodamine B assay. It is filed as functional, cell-based. The conditions noted are these: HT-29, 96 h.
Assay [3] has as its system MCF7. Briefly: Cytotoxicity against human MCF7 cells assessed as reduction in cell proliferation after 96 hrs by sulforhodamine B assay. It is filed as functional, cell-based. Conditions: MCF7, 96 h.
The test system of assay [4] is A549. As to the kind of experiment: Cytotoxicity against human A549 cells assessed as reduction in cell proliferation after 96 hrs by sulforhodamine B assay. It counts as functional, cell-based. Conditions: A549, 96 h.
Assay [5] relates to A2780. Briefly: Cytotoxicity against human A2780 cells assessed as reduction in cell proliferation after 96 hrs by sulforhodamine B assay. It counts as functional, cell-based. Conditions: A2780, 96 h.
Assay [6] concerns SW-1736. As to the kind of experiment: Cytotoxicity against human SW1736 cells assessed as reduction in cell proliferation after 96 hrs by sulforhodamine B assay. It is filed as functional, cell-based. The conditions noted are these: SW-1736, 96 h.
Assay [7] relates to NIH3T3. As to the kind of experiment: Cytotoxicity against mouse NIH/3T3 cells assessed as reduction in cell proliferation after 96 hrs by sulforhodamine B assay. It is filed as ADME, cell-based. The conditions noted are these: NIH3T3, 96 h.
For assay [8], the system named is FaDu. As to the kind of experiment: Cytotoxicity against human FADU cells assessed as reduction in cell proliferation after 96 hrs by sulforhodamine B assay. It is filed as functional, cell-based.

Structures are written as SMILES.

`CC(=O)O[C@H]1C[C@]2(C)[C@H]3CC=C4[C@@H]5[C@@H](C)[C@H](C)CC[C@]5(NC(=O)c5ccccc5)CC[C@@]4(C)[C@]3(C)CC[C@H]2C(C)(C)[C@H]1OC(C)=O`: the EC50 in assay [1] was 7.9 µM; in assay [2] it was 11.7 µM; in assay [3], over 30 µM; in assay [4], 16.4 µM; in assay [5] it was 6.7 µM; in assay [6] it was 14.9 µM. Further, in assay [7], the EC50 worked out at 14.1 µM.
For the molecule `CC1(C)CC[C@]2(C(=O)NCc3ccccc3)CC[C@]3(C)C(=CC[C@@H]4[C@@]5(C)C[C@H]6OC(C)(C)O[C@@H]6C(C)(C)[C@@H]5CC[C@]43C)[C@@H]2C1`, the EC50 in assay [1] is 29.8 µM; in assay [8] it was over 30 µM; in assay [2], 25.9 µM; in assay [3], 14.6 µM; in assay [4], 26.4 µM; in assay [5], 12.9 µM. The EC50 in assay [6] was over 30 µM; in assay [7], 21.6 µM.
Turning to `CC(=O)O[C@@H]1C[C@]2(C)[C@H]3CC=C4[C@@H]5CC(C)(C)CC[C@]5(C(=O)Nc5ccccc5)CC[C@@]4(C)[C@]3(C)CC[C@H]2C(C)(C)[C@H]1OC(C)=O`, the EC50 in assay [1] is 0.7 µM; in assay [8], 1.4 µM; in assay [2], 2.9 µM; in assay [3] it was 3.1 µM; in assay [4], 9.5 µM; in assay [6], 2.9 µM. Besides, the EC50 in assay [7] was found to be 16 µM.
Turning to `CC1(C)CC[C@]2(C(=O)NCc3ccccc3)CC[C@]3(C)C(=CC[C@@H]4[C@@]5(C)C[C@H]6OCO[C@@H]6C(C)(C)[C@@H]5CC[C@]43C)[C@@H]2C1`, the EC50 in assay [1] was over 30 µM; in assay [8], over 30 µM; in assay [2], 20.8 µM; in assay [3], 16.7 µM; in assay [4], over 30 µM; in assay [6] it was over 30 µM. Further, in assay [7], the EC50 worked out at 13.9 µM.
With `CC(=O)O[C@H]1C[C@]2(C)[C@H]3CC=C4[C@@H]5CC(C)(C)CC[C@]5(C(=O)Nc5ccccc5)CC[C@@]4(C)[C@]3(C)CC[C@H]2C(C)(C)[C@H]1OC(C)=O`, the EC50 in assay [1] came out at 2 µM; in assay [2], 2.6 µM; in assay [3], 1.8 µM; in assay [4], 4.9 µM; in assay [5], 1.3 µM; in assay [6], 2.7 µM. Moreover, in assay [7], the EC50 is over 60 µM.
In the case of `CO[C@@H]1C[C@]2(C)[C@H]3CC=C4[C@@H]5CC(C)(C)CC[C@]5(C(=O)NCc5ccccc5)CC[C@@]4(C)[C@]3(C)CC[C@H]2C(C)(C)[C@H]1O`, the EC50 in assay [1] was found to be 12.6 µM; in assay [8] it was 11.4 µM; in assay [2], 10.6 µM; in assay [3], 11.7 µM; in assay [4] it was 21.5 µM; in assay [6], 18.1 µM. Further, the EC50 in assay [7] was 11.9 µM.
With `CC1(C)CC[C@]2(C(=O)NCc3ccccc3)CC[C@]3(C)C(=CC[C@@H]4[C@@](C)(CC=O)[C@H](C(C)(C)C=O)CC[C@]43C)[C@@H]2C1`, the EC50 stood at 6 µM in assay [1]; 7 µM in assay [8]; 8.3 µM in assay [2]; 5.4 µM in assay [3]; 6.9 µM in assay [4]; 7.5 µM in assay [6]. Besides, the EC50 in assay [7] amounted to 12.2 µM.
As to `CC(=O)O[C@H]1C[C@]2(C)[C@H]3CC=C4[C@@H]5[C@@H](C)[C@H](C)CC[C@]5(C(=O)Nc5ccccc5)CC[C@@]4(C)[C@]3(C)CC[C@H]2C(C)(C)[C@H]1OC(C)=O`, the EC50 in assay [1] turned out to be 3.4 µM; in assay [2], 7.3 µM; in assay [3] it was 16.4 µM; in assay [4], 8.9 µM; in assay [5] it was 3.3 µM; in assay [6], 4.4 µM. Moreover, the EC50 in assay [7] is over 60 µM.
On to `CC(=O)O[C@H]1C[C@]2(C)[C@H]3CC=C4[C@@H]5[C@@H](C)[C@H](C)CC[C@]5(NC(=O)Nc5ccccc5)CC[C@@]4(C)[C@]3(C)CC[C@H]2C(C)(C)[C@H]1OC(C)=O`, for which the EC50 in assay [1] is 2.5 µM; in assay [2], 16 µM; in assay [3] it was 19.6 µM; in assay [4], 12.4 µM; in assay [5], 1.5 µM; in assay [6], 6.8 µM. Moreover, the EC50 in assay [7] is over 120 µM.
As for `CC(=O)O[C@H]1C[C@]2(C)[C@H]3CC=C4[C@@H]5CC(C)(C)CC[C@]5(C(=O)O)CC[C@@]4(C)[C@]3(C)CC[C@H]2C(C)(C)[C@H]1OC(C)=O`, the EC50 was over 30 µM in assay [8]; 18.8 µM in assay [2]; 15.1 µM in assay [3]; 29.1 µM in assay [4]; 7.2 µM in assay [5]; over 30 µM in assay [6]. Besides, in assay [7], the EC50 was determined as 8 µM.
For `CC(=O)O[C@@H]1C[C@]2(C)[C@H]3CC=C4[C@@H]5CC(C)(C)CC[C@]5(C(=O)NCCc5ccccc5)CC[C@@]4(C)[C@]3(C)CC[C@H]2C(C)(C)[C@H]1OC(C)=O`, the EC50 in assay [1] came out at 1.2 µM; in assay [8], 2.8 µM; in assay [2], 6.1 µM; in assay [3] it was 5.8 µM; in assay [4], 9.2 µM; in assay [6], 5.2 µM. Besides, the EC50 in assay [7] came to 9.5 µM.
Turning to `CC(=O)O[C@H]1C[C@]2(C)[C@H]3CC=C4[C@@H]5CC(C)(C)CC[C@]5(NC(=O)c5ccccc5)CC[C@@]4(C)[C@]3(C)CC[C@H]2C(C)(C)[C@H]1OC(C)=O`, the EC50 in assay [1] worked out at 3.5 µM; in assay [2], 6.8 µM; in assay [3], 16.8 µM; in assay [4] it was 11.1 µM; in assay [5], 3.1 µM; in assay [6], 6.8 µM. Besides, the EC50 in assay [7] was 12.2 µM.
As for `CC(=O)O[C@H]1C[C@]2(C)[C@H]3CC=C4[C@@H]5[C@@H](C)[C@H](C)CC[C@]5(NC(=O)Oc5ccccc5)CC[C@@]4(C)[C@]3(C)CC[C@H]2C(C)(C)[C@H]1OC(C)=O`, the EC50 worked out at 3.1 µM in assay [1]; 7.6 µM in assay [2]; 23.3 µM in assay [3]; 10.1 µM in assay [4]; 1.6 µM in assay [5]; 5.5 µM in assay [6]. The EC50 in assay [7] was over 30 µM.
Take `CC(=O)O[C@@H]1C[C@]2(C)[C@H]3CC=C4[C@@H]5CC(C)(C)CC[C@]5(C(=O)O)CC[C@@]4(C)[C@]3(C)CC[C@H]2C(C)(C)[C@H]1OC(C)=O`: the figures for the EC50 in assay [1], in assay [8] and in assay [3] were 23.1 µM, 17.8 µM and 16.6 µM, respectively.
Take `CO[C@@H]1C[C@]2(C)[C@H]3CC=C4[C@@H]5CC(C)(C)CC[C@]5(C(=O)NCc5ccccc5)CC[C@@]4(C)[C@]3(C)CC[C@H]2C(C)(C)[C@H]1OC`: the EC50 in assay [1] was determined as 18.1 µM; in assay [8], 17.2 µM; in assay [2], 14.3 µM; in assay [3] it was 14.6 µM; in assay [4] it was 15.3 µM; in assay [6], 20.5 µM. In addition, the EC50 in assay [7] was determined as 14.7 µM.
As for `COCO[C@@H]1C[C@]2(C)[C@H]3CC=C4[C@@H]5CC(C)(C)CC[C@]5(C(=O)NCc5ccccc5)CC[C@@]4(C)[C@]3(C)CC[C@H]2C(C)(C)[C@H]1OCOC`, the EC50 came to 22.1 µM in assay [1]; 17.9 µM in assay [8]; 15.9 µM in assay [2]; 15.2 µM in assay [3]; 17.3 µM in assay [4]; 18.2 µM in assay [6]. Also, the EC50 in assay [7] is 15 µM.
